Data as given in patent US8993595B2, “Macrocyclic serine protease inhibitors” (priority 2009, dated 2015).

What was measured:
[1] = MTS Cytotoxicity Assay in HPC cells; assay type: cell-based; details: human; HPC cells (2a virus line)
Method: HPC cells were infected with JFH-1 (genotype 2a) and treated with the compound for 4 days (virus inoculum was removed after 16 hrs). Remaining virus was measured by an anti-HCV core ELISA. Compound cytotoxicity was also measured in parallel using a colorimetric proliferation assay as described in Example 5.
The cytotoxicity assay measures the viability of cells after treatment with a test compound for 5 days. The assay readout is the bioreduction of the yellow MTS tetrazolium compound to a purple formazan product. This conversion is mediated by NADPH or NADH and is directly proportional to the number of live cells in a culture.
Ninety-six-well Corning Costar plates were seeded with HPC cells at a density of 3.0×10^3 cells per well in 50 μL of Huh-7 media. Compound stock solutions were made up freshly in Huh-7 media as 2× stocks. Seven additional 3-fold drug dilutions were prepared from the 2× stocks in Huh-7 media for a total of 8 dilutions.
At least 4 hours after HPC cells were seeded, 50 μL of each drug dilution was added to the cultures. […]
After 5 days of treatment, the CellTiter 96® Aqueous One Solution cell proliferation assay was performed by adding 20 μL of MTS solution to each well. […] Plates were read at A490 nm in a Victor^3 V 1420 multilabel counter (Perkin Elmer) and CC50 concentrations were determined using Microsoft Excel and XLfit 4.1 software. […]

[2] = tested on: A-1a cell line (genotype 1a replicon selected with 10 nM, D168A); assay: Extent of resistance after selection, A-1a; assay type: cell-based, HCV; details: selecting conc. 10 nM
Method: (§1) Replicon cells (genotype 1a or 1b) were treated with various concentrations of compound 52 in the presence of G418. Treatment-emergent genotypic changes were identified by population sequencing of NS3 (both protease and helicase regions). The activity of compound 52 and other compounds was evaluated by NS5A western blot after selection or luciferase assay during and after selection.

[3] = tested on: ZlucB cell line (genotype 1b replicon selected with 25 nM compound 52, D168V); assay: Extent of resistance after selection, luciferase assay, ZlucB; assay type: cell-based, HCV; details: selecting conc. 25 nM, EC50 resistant / EC50 wild-type
Method: as §1
Eight drug-resistance replicon cell lines were created by long-term culture of genotype 1b replicon cells with 10 or 25 nM of compound 52. NS3 (AAs 1-631) was sequenced at each passage.

[4] = tested on: human peripheral blood lymphocytes; assay type: cell-based; details: up to 84 μg/mL, with and without S9
Method: The potential for compound 52 to induce mutations in a bacterial system (S. typhimurium and E. coli—at concentrations up to 5,000 μg/plate), to induce chromosomal aberrations in cultures of human peripheral blood lymphocytes (at concentrations up to 84 μg/mL), and to induce clastogenic and/or aneugenic activity in CD-1 mice (at oral doses up to 2,000 mg/kg) was evaluated. The two in vitro studies were performed with and without the addition of a mammalian metabolic activation system (rat liver S9 subcellular fraction).

[5] = target: T1, HCV NS3-4A Protease Genotype 3a (Hepatitis C virus genotype 3a, UniProt Q81258); assay: HCV protease assay, recombinant NS3-4A genotype 3a; assay type: biochemical; details: mean ± SD, 3 experiments
T1 construct: recombinant HCV NS3-4A proteases
Method: (§2) The compounds were tested at a variety of concentrations in assay buffer containing a final DMSO concentration of 5%. Reactions were allowed to proceed for 60 min at room temperature and fluorescence measurements were recorded with a Tecan Infinity Spectrofluorimeter. The IC50 values were determined from the percent inhibition versus concentration data using a sigmoidal non-linear regression analysis based on four parameters with Tecan Magellan software.
(§3) Compound 52 was tested against genotypes 1a, 1b, 2a, 3a, and 4a of recombinant HCV NS3-4A proteases, along with other cellular proteases.

[6] = tested on: cardiovascular and respiratory systems of monkeys; assay type: in vivo, cynomolgus monkey; details: oral doses up to 250 mg/kg
Source text: One in vitro GLP safety pharmacology study evaluated the effects of compound 52 on hERG channel currents in voltage-clamped human embryonic kidney cells (HEK293) stably expressing the human ether-à-go-go-related gene (hERG) channel. Four in vivo GLP safety pharmacology studies evaluated the potential effects of the compound on the cardiovascular and respiratory systems in the cynomolgus monkey and on the central nervous, renal, and gastrointestinal systems in the CD-1 mouse at single oral doses up to 250 mg/kg of compound 52.

[7] = Pharmacokinetics in human volunteers, single dose cohorts
[8] = target: T2, HCV NS3-4A Protease Genotype 2a (Hepatitis C virus genotype 2a, UniProt Q99IB8); assay: HCV protease assay, recombinant NS3-4A genotype 2a; assay type: biochemical; details: mean ± SD, 3 experiments
T2 construct: recombinant HCV NS3-4A proteases
Method: as §2, §3

[9] = human plasma

COc1ccc2c(O[C@H]3CCN4C(=O)N(C)CCCC/C=C\[C@@H]5C[C@@]5(C(=O)NS(=O)(=O)C5(C)CC5)NC(=O)[C@@H]4C3)cc(-c3nc(C(F)(F)F)cs3)nc2c1C [Compound 52, 1-methyl-cyclopropanesulfonic acid{(Z)-(1S,4R,6S,18S)-18-[7-methoxy-8-methyl-2-(4-trifluoromethyl-thiazol-2-yl)-quinolin-4-yloxy]-13-methyl-2,14-dioxo-3,13,15-triaza-tricyclo[13.4.0.0*4,6*]nonadec-7-ene-4-carbonyl}amide]
CC50 at 5 days [1]: 11300 ± 100 nM
Fold-Change [2]: 589 ± 442
Fold-Change [3]: 1037 ± 144
genotoxicity, human lymphocyte chromosomal aberration test [4]: no genotoxicity
IC50 [5]: 23 ± 1.9 nM
effects on the cardiovascular and respiratory systems [6]: no effects
total and trough exposure, HCV-infected patients compared to healthy volunteers ([7]; 2 HCV-infected patients, comparable Cmax): 2 fold
enhancement of overall plasma exposure by food ([7]; food compared to fasting state): approximately 2 fold
C24 hr ([7]; single dose 100 mg, human volunteers): 19 ± 9 ng/mL
C24 hr ([7]; single dose 200 mg, HCV patients, N = 2): 131 ng/mL
C24 hr ([7]; single dose 200 mg, human volunteers): 53 ± 26 ng/mL
C24 hr ([7]; single dose 400 mg Fasted, human volunteers): 54 ± 28 ng/mL
C24 hr ([7]; single dose 400 mg, human volunteers): 89 ± 16 ng/mL
IC50 [8]: 1.9 ± 0.5 nM
protein bound in plasma [9]: 99.6%
